Experimental data taken from patent US20250205186A1, “USE OF CHLOROGENIC ACID IN PREPARING MEDICINE OR PHARMACEUTICAL COMPOSITION FOR PREVENTING OR TREATING PAIN” (SICHUAN JIUZHANG BIOLOGICAL SCIENCE AND TECHNOLOGY CO., LTD., priority 2019, published 2025).

Key:
[1] = tested on: 5-HT; test: 5-HT content in brain tissue by HPLC-EC in bone cancer pain rats; type: in vivo, rat; conditions: for 5-HT content in the brain tissue: after 15 days of administration
Experimental: 60 SD rats were randomly selected, and after anesthesia, a small 1 cm incision was made in the upper tibial skin. A 10 mL syringe needle was used to puncture and perforate, then a 10 μL syringe was inserted into the bone marrow cavity, and 3 μL cell suspension containing […] Walker rat breast cancer cells was slowly injected. The pinhole was sealed with bone wax, and the skin was sutured. After surgery, the rats were placed on a 37° C. hot plate for rewarming. After recovery, rats were returned to the cage for further breeding, to obtain the model group. In addition, 8 SD rats were randomly selected, and an equal volume of PBS solution was injected into the marrow cavity of the left upper tibia. The rest of the operations were the same as the model group, to obtain the sham operation group. The rats that had been successfully modeled were randomly divided into groups, eight rats for each group, that included high-dose chlorogenic acid group (80 mg/kg), middle-dose chlorogenic acid group (40 mg/kg), low-dose chlorogenic acid group (20 mg/kg), model negative group (N.S normal saline), and sham operation group (N.S normal saline). The rats were intraperitoneally injected with drugs for 15 days in a volume of 0.2 mL/10 g, once a day; the model-negative group and the sham operation group were given the same volume of normal saline. After the rats were sacrificed, the hypothalamus was quickly separated, homogenized in an ice bath with perchloric acid, and centrifuged. The supernatant was collected, and the contents of NE, DA, and 5-HT were determined by HPLC-EC method (Hou […], Wang Na, et al, Effects of progesterone on morphine-induced conditioned place preference and levels of monoamine transmitters in rat brain. Chinese Journal of Pharmacology, 2006, 22(8), 980-983).

[2] = tested on: TNF-α; test: Serum TNF-α content by ELISA in bone cancer pain rats; type: in vivo, rat; conditions: for Cytokines TNF-α content in serum: after 15 days of administration; for Serum level of TNF-α compared with the model-negative group: after 15 days
Experimental: 60 SD rats were randomly selected, and after anesthesia, a small 1 cm incision was made in the upper tibial skin. A 10 mL syringe needle was used to puncture and perforate, then a 10 μL syringe was inserted into the bone marrow cavity, and 3 μL cell suspension containing 3×10^3 Walker rat breast cancer cells was slowly injected. The pinhole was sealed with bone wax, and the skin was sutured. After surgery, the rats were placed on a 37° C. hot plate for rewarming. After recovery, rats were returned to the cage for further breeding, to obtain the model group. In addition, 8 SD rats were randomly selected, and an equal volume of PBS solution was injected into the marrow cavity of the left upper tibia. The rest of the operations were the same as the model group, to obtain the sham operation group. The rats that had been successfully modeled were randomly divided into groups, eight rats for each group, that included high-dose chlorogenic acid group (80 mg/kg), middle-dose chlorogenic acid group (40 mg/kg), low-dose chlorogenic acid group (20 mg/kg), model negative group (N.S normal saline), and sham operation group (N.S normal saline). The rats were intraperitoneally injected with drugs for 15 days in a volume of 0.2 mL/10 g, once a day; the model-negative group and the sham operation group were given the same volume of normal saline. After the last administration, blood was collected from the eyeballs of the rats, and the animals in each group were sacrificed by neck removal. The blood samples were allowed to stand at room temperature for 20 minutes and then centrifuged. The supernatant was collected and the contents of TNF-α, IL-1β, and IL-6 in the peripheral blood serum of the […] were determined by ELISA.

## O=C(/C=C/c1ccc(O)c(O)c1)O[C@@H]1C[C@](O)(C(=O)O)C[C@@H](O)[C@H]1O [Chlorogenic acid]
[1]; 20 mg/kg ip once a day
  5-HT content in the brain tissue: 0.91 ± 0.15 nmol/g
[1]; 20 mg/kg, p<0.05
  5-HT content in brain tissue compared with the model-negative group: the difference was significant
[1]; 40 mg/kg ip once a day
  5-HT content in the brain tissue: 0.95 ± 0.19 nmol/g
[1]; 40 mg/kg, p<0.05
  5-HT content in brain tissue compared with the model-negative group: the difference was significant
[1]; 80 mg/kg ip once a day
  5-HT content in the brain tissue: 0.77 ± 0.11 nmol/g
[1]; 80 mg/kg, p>0.05
  5-HT content in brain tissue compared with the model-negative group: no significant difference
[2]; 20 mg/kg ip once a day
  Cytokines TNF-α content in serum: 39.74 ± 6.04 ng/L
[2]; 20 mg/kg, p<0.05
  Serum level of TNF-α compared with the model-negative group: lower than those in the model-negative group
[2]; 40 mg/kg ip once a day
  Cytokines TNF-α content in serum: 35.25 ± 4.62 ng/L
[2]; 40 mg/kg, p<0.05
  Serum level of TNF-α compared with the model-negative group: lower than those in the model-negative group
[2]; 80 mg/kg ip once a day
  Cytokines TNF-α content in serum: 54.48 ± 5.99 ng/L
[2]; 80 mg/kg
  Serum level of TNF-α compared with the model-negative group: the difference was not significant
